Source: patent US9963474B2, “Mitochondria-targeted dicarbonyl sequestering compounds” (MEDICAL RESEARCH COUNCIL, priority 2013, dated 2018)

Assays:
[1] = Competitive rate experiment for methylglyoxal monitored by 1H NMR; details: 0.12 mM, DMSO, 25° C.
BAECs [2] = assay: Cell survival, MTS assay, BAECs; assay type: cell-based, bovine; details: BAEC, 24 h
Experimental: (§1) (A, B) RLM respiring on glutamate/malate at 37° C. were incubated with various concentrations of MitoG for 7 min in an oxygen electrode to measure coupled respiration (A) before ADP was added to measure phosphorylating respiration (B). Data are the percentage of the respiration rates of untreated controls (dashed lines). (C and D) C2C12 cells (C) or BAECs [Bovine Aortic Endothelial Cells; Cell Applications Inc, San Diego, Calif.] (D) were incubated with MitoG for 24 h and cell survival was then determined using the MTS assay. Data are expressed as a percentage of the untreated controls (dashed line). (E-H) BAECs were incubated with MitoG for 2 h at 37° C. and the cellular oxygen consumption rate (OCR) after the sequential additions of oligomycin, FCCP and antimycin A/rotenone were then measured using a Seahorse XF24 analyser. (E) OCR due to ATP synthesis, (F) OCR due to proton leak, (G) reserve capacity and (H) non-mitochondrial oxygen consumption. Results are means±S.E. of three independent experiments. *, P<0.05 or **, P<0.01 relative to untreated controls.
To assess cell viability, C2C12 cells or BAECs were seeded at a density of 10,000 cells/well and 40,000 cells/well, respectively, in 96-well plates. […] After 2 h absorbance was read at 490 nm in a plate reader (SpectraMax Plus 384, Molecular Devices). […]

BAECs [3] = assay: Cellular oxygen consumption rate, Seahorse XF24; assay type: cell-based, bovine
Experimental: as §1
The Seahorse XF24 extracellular flux analyser was used to assess cellular oxygen consumption rate (OCR). […] OCR was determined as follows: cells were washed twice in assay medium [4.15 g/l DMEM base, 1.85 g/l NaCl, ix glutamax (Invitrogen), 1 mM sodium pyruvate, 5 mM D-glucose, 15 mg/l phenol red, 20 mM HEPES and 0.4% (v/v) FCS, pH 7.4] and incubated in 630 μl assay medium for 1 h at 37° C. in air. After 20 min equilibration basal OCR was determined and after 3 h incubation with MitoG sequential injections of oligomycin (1 μg/ml), FCCP (2 μM) and rotenone/antimycin A (4 μg/ml and 5 μM, respectively). OCRs were normalized to cell number as measured using the sulphorhodamine B (SRB) assay as follows: cells were fixed (200 μl 5% trichloroacetic acid at 4° C. for 1 h), washes with water (×3), stained for 20 min with 50 μl 0.4% (w/v) SRB in 1% (v/v) acetic acid, washed (3×1% acetic acid) and the incorporated SRB dye solubilised in 100 μl 10 mM Tris base for 5 min. […]

[4] = Reaction with reactive aldehydes followed by RP-HPLC; details: RP-HPLC analysis, data not shown
Description: MitoG reacted with methylglyoxal and glyoxal to form products with identical absorption, fluorescence and RP-HPLC properties (FIGS. 3E, F, G & H) to those of independently synthesized and characterized MQE or QE (FIGS. 3B, C & D). […] Thus the reaction of MitoG with these aldehydes is not diagnostically useful, in contrast to that with 1,2-dicarbonyls, which generates stable, dominant products.

respiratory reserve capacity (BAECs [3]; 2-5 μM): decreased respiratory reserve capacity
OCR due to ATP synthesis (BAECs [3]; concentrations above 10 μM): slightly decreased
SMILES: Nc1ccc(OCCCCCC[P+](c2ccccc2)(c2ccccc2)c2ccccc2)cc1N [MitoG, (6-(3,4-Diaminophenoxy)hexyl)triphenylphosphonium chloride]
reactivity relative to o-phenylenediamine for methylglyoxal [1]: ~1.8 ×
concentration above which cell viability decreased (BAECs [2]): > 50 µM
OCR due to proton leak (BAECs [3]; 2-5 μM): trend to an increased OCR due to proton leak
reaction with HNE or acrolein [4]: did react, a number of products were formed some of which were unstable
